Measured values: paper PMC7221892, “In Vitro and in Vivo Activity of mTOR Kinase and PI3K Inhibitors Against Leishmania donovani and Trypanosoma brucei” (Molecules, 2020)

How the values were obtained:
[1] = system: intracellular L. donovani; experiment: Intracellular L. donovani in THP-1 cells, dose-dilution high-content imaging assay; format: cell-based; details: for EC50: Leishmania donovani, THP-1 cells infected with L. donovani, 72 h, duplicate measurements, read-out: Intracellular L. donovani EC50 ± SD; for activity confirmation in dose-dilution assays: intracellular L. donovani EC50 / THP-1 CC50, result in words; for Selectivity Index (SI): SI = THP-1 CC50/Intracellular L. donovani EC50
Procedure: (§1) PMA-treated THP-1 human monocytic cells were seeded at 0.8 × 10^4 cells per well in a 384-well culture plate (Greiner Bio-One, Kremsmünster, Austria) in RPMI-1640 complete medium supplemented with 10% FBS. After 48 h of incubation at 37 °C in the presence of 5% CO2, the promastigotes of L. donovani that were incubated with lectin for 30 min at 28 °C were added to the cells at a parasite to cell ratio of 20:1. […] The negative control consisted of THP-1 infected with the parasite with only 0.5% DMSO. After 72 h, the cells that were infected and treated with the drug were washed with serum-free RPMI-1640 medium. The cells and parasites were stained using 5 μM DRAQ5 and 4% PFA. The images were acquired based on reading using an Operetta® automated microscope (PerkinElmer, Inc., Waltham, MA 02451 USA). They were further analyzed using Columbus^TM (PerkinElmer, Inc. Waltham, MA, USA) software to quantify parasite numbers, host cell numbers, and infection ratios. In brief, large-sized nucleus of host cells was first detected using Draq-5 (Thermo Fisher, Rockford, IL, USA) signal and the host cell boundary masking was performed using the low-intensity signals from cytosols (additional feature of Draq-5). Then the small-sized nucleus signal by Draq-5 was used to identify parasites within the area of masked host cell. Infection ratio (IR) was determined with the value of the number of infected cells divided by total number of cells and the average number of parasites per macrophage (P/φ) was defined by the value of the number of parasites divided by the number of infected cells in the acquired image.
(§2) All of the half maximal effective concentrations (EC50) and the half maximal cytotoxic concentrations (CC50) values were calculated using two independent experiments. The dose-response curves were fitted using GraphPad Prism 6 software (GraphPad Software, San Diego, CA, USA) by using a sigmoidal dose-response equation with a variable hill slope option.

[2] = Host cell cytotoxicity (CC50) in infected THP-1 cells, dose-dilution assay; format: cell-based; details: human, infected THP-1 host cells, read-out: THP-1 Cell CC50 ± SD
Procedure: as §1, §2

[3] = system: L. donovani promastigotes; experiment: L. donovani promastigote growth inhibition (resazurin); format: cell-based; details: Leishmania donovani, 72 h, 3 days exposure, read-out: L. donovani Promastigote EC50 ± SD
Procedure: (§3) L. donovani promastigote and T. b. brucei Lister 427 BSF growth inhibition were assayed by measuring the conversion of resazurin to resorufin. The assays were performed in 384-well plates that were seeded with L. donovani promastigotes or T. brucei 427 BSF (5 × 10^4 cells per well). After seeding, the parasites were exposed to the compounds for 3 days. Resazurin sodium salt (200 μM; R7017; Sigma-Aldrich, St. Louis, MO, USA) was then added, and the samples were incubated for 5 h. After incubation, the parasites were fixed using 4% paraformaldehyde, and the plates were analyzed using a Victor3^TM plate reader (PerkinElmer, Inc., Waltham, MA, USA) at 590 nm (emission) and 530 nm (excitation). […] Pentamidine was used for the T. b. brucei Lister 427 BSF growth inhibition assay.
as §2

[4] = system: T. b. brucei Lister 427 BSF; experiment: T. b. brucei Lister 427 bloodstream form growth inhibition (resazurin); format: cell-based; details: Trypanosoma brucei, 72 h, 3 days exposure, read-out: T. brucei Lister 427 BSF EC50 ± SD
Procedure: as §3, §2

[5] = system: intracellular L. donovani; experiment: Pilot high-content screening against intracellular L. donovani at 10 μM; format: cell-based; details: screening concentration 10 µM
Procedure: as §1, with “image. The average IR value of the negative control wells was calculated as 0.53. Compounds selected based on the screening results were further assessed in a dose-dilution manner (two-fold serial dilution for 20 points starting from 100 μM) using the same method.” for “image.”

[6] = system: L. donovani; experiment: VL mouse model (L. donovani-infected BALB/c mice); format: in vivo; details: miltefosine 30, Torin2 15, dactolisib 50, NVP-BGT226 5 mg/kg; for Inhibition of L. donovani In Vivo (%) (Mean ± SD): liver parasite burden vs vehicle, per os 5 days; for LDU in the Liver (Mean ± SD): once daily per os for 5 days from day 7 post-infection
Procedure: The highest dose for each compound without showing adverse effects was selected based on literature search. The vehicle for the compounds was 5% N-methylpyrrolidone, 15% polyvinylpyrrolidone, and 80% deionized water. Drug dosing solutions were freshly prepared each day. All drugs were administered once daily for 5 days via the per os route. On day 16 post-infection, all animals were humanely euthanized and assessed microscopically using Giemsa-stained liver imprints. Parasite burdens were measured by counting (blinded to treatment) the number of amastigotes per 1000 cell nuclei and multiplying this number by the liver weight (mg) (Leishman-Donovan Unit: LDU). The LDU values for the drug-treated samples were compared to those of the untreated samples, and the percent inhibition values were calculated.

## CC(C)n1nc(-c2ccc3oc(N)nc3c2)c2c(N)ncnc21 [Sapanisertib]
[1]
  EC50: 6.39 ± 1.12 µM
[2]
  CC50 at 72 h: > 100 µM
[3]
  EC50: 7.46 ± 1.04 µM
[4]
  EC50: 5.34 ± 0.98 µM

## CO[C@H]1C[C@@H]2CC[C@@H](C)[C@@](O)(O2)C(=O)C(=O)N2CCCC[C@H]2C(=O)O[C@H]([C@H](C)C[C@@H]2CC[C@@H](OCCO)[C@H](OC)C2)CC(=O)[C@H](C)/C=C(\C)[C@@H](O)[C@@H](OC)C(=O)[C@H](C)C[C@H](C)/C=C/C=C/C=C/1C [everolimus]
[5]
  inhibition of intracellular parasite survival in screening: did not show potent inhibition

## [O-][S+](c1ccccc1)c1ccc2nnnn2n1 (stereo not drawn) [Ro 106–9920]
[1]
  activity confirmation in dose-dilution assays: confirmed to be active

## COc1cc2c(Oc3ccc4[nH]c(C)cc4c3F)ncnc2cc1OCCCN1CCCC1 [cediranib]
[1]
  activity confirmation in dose-dilution assays: either low activity (half maximal effective concentration, EC50) or high toxicity (CC50)

## CN1[C@@H]2CC[C@H]1CC(OC(c1ccccc1)c1ccc(Cl)cc1)C2 (stereo partly drawn) [3-CPMT]
[1]
  activity confirmation in dose-dilution assays: either low activity (half maximal effective concentration, EC50) or high toxicity (CC50)

## CO[C@H]1C[C@@H]2CC[C@@H](C)[C@@](O)(O2)C(=O)C(=O)N2CCCC[C@H]2C(=O)O[C@H]([C@H](C)C[C@@H]2CC[C@@H](OP(C)(C)=O)[C@H](OC)C2)CC(=O)[C@H](C)/C=C(\C)[C@@H](O)[C@@H](OC)C(=O)[C@H](C)C[C@H](C)/C=C/C=C/C=C/1C [deforolimus]
[5]
  inhibition of intracellular parasite survival in screening: did not show potent inhibition

## COc1ccccc1C1(O)CCN(CCCn2c3ccccc3c3ccccc32)CC1 [NNC05–2090]
[1]
  activity confirmation in dose-dilution assays: confirmed to be active

## CC(C)c1ccc(C(=O)c2cccs2)c(SCCCCCCCCN(C)C)n1 [Y29794]
[1]
  activity confirmation in dose-dilution assays: confirmed to be active

## S=C=Nc1cccc(C2(N3CCCCC3)CCCCC2)c1 [metaphit]
[1]
  activity confirmation in dose-dilution assays: confirmed to be active

## CN(C)C/C=C/C(=O)Nc1cc2c(Nc3ccc(F)c(Cl)c3)ncnc2cc1O[C@H]1CCOC1 [afatinib]
[1]
  activity confirmation in dose-dilution assays: either low activity (half maximal effective concentration, EC50) or high toxicity (CC50)

## CC[C@H](Nc1ncnc2[nH]cnc12)c1nc2cccc(F)c2c(=O)n1-c1ccccc1 [CAL-101]
[5]
  inhibition of intracellular parasite survival in screening: no direct effects on the parasite

## O=S(=O)(NCCNC/C=C/c1ccc(Br)cc1)c1cccc2cnccc12 [H89]
[1]
  activity confirmation in dose-dilution assays: either low activity (half maximal effective concentration, EC50) or high toxicity (CC50)

## C[C@@H]1[C@H](O)[C@@H](C)/C=C/C=C/C=C/C=C/C=C/C=C/C=C/[C@H](O[C@@H]2O[C@H](C)[C@@H](O)[C@H](N)[C@@H]2O)C[C@@H]2O[C@](O)(C[C@@H](O)C[C@@H](O)[C@H](O)CC[C@@H](O)C[C@@H](O)CC(=O)O[C@H]1C)C[C@H](O)[C@H]2C(=O)O [Amphotericin B]
[1]
  EC50: 0.34 ± 0.04 µM
  Selectivity Index (SI): >11.8
[2]
  CC50 at 72 h: > 4 µM
[3]
  EC50: 0.015 ± 0.003 µM

## CO[C@H]1C[C@@H]2CC[C@@H](C)[C@@](O)(O2)C(=O)C(=O)N2CCCC[C@H]2C(=O)O[C@H]([C@H](C)C[C@@H]2CC[C@@H](O)[C@H](OC)C2)CC(=O)[C@H](C)/C=C(\C)[C@@H](O)[C@@H](OC)C(=O)[C@H](C)C[C@H](C)/C=C/C=C/C=C/1C [rapamycin]
[5]
  inhibition of intracellular parasite survival in screening: did not show potent inhibition

## CNC(=O)Nc1ccc(-c2nc(N3CC4CCC(C3)O4)c3cnn(C4CCC5(CC4)OCCO5)c3n2)cc1 [WYE-125132]
[1]
  EC50: 2.26 ± 0.71 µM
  Selectivity Index (SI): 19
[2]
  CC50 at 72 h: 43.3 ± 2.7 µM
[3]
  EC50: 0.36 ± 0.04 µM
[4]
  EC50: 0.12 ± 0.01 µM

## Cc1cc(Nc2cc(N3CCN(C)CC3)nc(/C=C/c3ccccc3)n2)n[nH]1 [ENMD-2076]
[1]
  activity confirmation in dose-dilution assays: either low activity (half maximal effective concentration, EC50) or high toxicity (CC50)

## Fc1ccc(C(OCCN2CCN(CCCc3ccccc3)CC2)c2ccc(F)cc2)cc1 [GBR12909]
[1]
  activity confirmation in dose-dilution assays: either low activity (half maximal effective concentration, EC50) or high toxicity (CC50)

## CO[C@H]1C[C@@H]2CC[C@@H](C)[C@@](O)(O2)C(=O)C(=O)N2CCCC[C@H]2C(=O)O[C@H]([C@H](C)C[C@@H]2CC[C@@H](OC(=O)C(C)(CO)CO)[C@H](OC)C2)CC(=O)[C@H](C)/C=C(\C)[C@@H](O)[C@@H](OC)C(=O)[C@H](C)C[C@H](C)/C=C/C=C/C=C/1C [temsirolimus]
[5]
  inhibition of intracellular parasite survival in screening: did not show potent inhibition

## N=C(N)c1ccc(OCCCCCOc2ccc(C(=N)N)cc2)cc1 [Pentamidine]
[4]
  EC50: 0.15 ± 0.01 µM

## CCCCCCCCCCCCCCCCOP(=O)([O-])OCC[N+](C)(C)C [Miltefosine]
[1]
  EC50: 4.81 ± 0.81 µM
[2]
  CC50 at 72 h: > 40 µM
[6]
  Inhibition of L. donovani In Vivo (%) (Mean ± SD): 87 ± 2.13%
  LDU in the Liver (Mean ± SD): 142 ± 24 LDU

## Cn1c(=O)n(-c2ccc(C(C)(C)C#N)cc2)c2c3cc(-c4cnc5ccccc5c4)ccc3ncc21 [Dactolisib (NVP-BEZ235)]
[1]
  EC50: 0.36 ± 0.07 µM
  Selectivity Index (SI): ≥277.8
[2]
  CC50 at 72 h: > 100 µM
[3]
  EC50: 0.38 ± 0.06 µM
[4]
  EC50: 0.12 ± 0.01 µM
[6]
  Inhibition of L. donovani In Vivo (%) (Mean ± SD): 53 ± 9.50%
  LDU in the Liver (Mean ± SD): 527 ± 108 LDU
[6]; listed as dactolisib
  Inhibition of L. donovani In Vivo (%) (Mean ± SD): 53%
[5]
  inhibition of intracellular parasite survival in screening: found active

## CCn1nnc2c(N3CCOCC3)nc(-c3ccc(NC(=O)Nc4ccc(C(=O)N5CCN(C)CC5)cc4)cc3)nc21 [PKI-402]
[1]
  EC50: 13.4 ± 2.35 µM
  Selectivity Index (SI): 2.1
[2]
  CC50 at 72 h: 28.5 ± 1.2 µM
[3]
  EC50: 0.49 ± 0.22 µM
[4]
  EC50: 0.26 ± 0.02 µM

## COc1ccc(CCCOC(Cn2ccnc2)c2ccc(OC)cc2)cc1 (stereo not drawn) [SKF 96365]
[1]
  activity confirmation in dose-dilution assays: confirmed to be active
